# In patent US20250057958A1, “CYTOTOXICITY TARGETING CHIMERAS FOR CCR2-EXPRESSING CELLS” (GLAXOSMITHKLINE INTELLECTUAL PROPERTY DEVELOPMENT LIMITED, priority 2022, published 2025):
# Columns and labels:
# [1] = test system: CCR2 expressing cells (CD11b+Ly6c+Hi monocytes); test: In vivo depletion assay (flow cytometry of peripheral blood); design: species or system human CCR2 (hCCR2) knock-in mice; conditions: IV bolus 0.1 mpk compound + 10 mpk anti-cotinine antibody (mouse IgG2a Fc), 48 hours
# Description: (§1) Human CCR2 (hCCR2) knock-in mice (C57 background) were dosed intravenously with a PBS solution containing a compound of Formula (I) to measure depletion of CCR2 expressing cells in peripheral blood. Peripheral blood from IV dosed mice was also analyzed to determine PK properties of the compounds of Formula (I).
# Formulations preparation: On the day of experiment, the stock solution of the compound of Formula (I) was removed from storage at −20° C. and thawed at room temperature. Anti-cotinine antibody having a heavy chain sequence of SEQ ID NO: 13 and a light chain sequence of SEQ ID NO: 14 (rabbit variable region sequence with mouse IgG2a Fc domain), if required was removed from storage at −80° C. and thawed at room temperature. Antibody vials were immediately transferred into wet ice after thawing. Compounds of Formula (I) were further diluted in DMSO as per experimental requirements.
# Formulation composition: The formulation composition was Saline: DMSO: PBS. Saline was added based on the quantity required and then stock solution of the compound of Formula (1) prepared in DMSO, followed by addition of antibody in PBS. Formulations were incubated at room temperature for 30 minutes before administration to the mouse. DMSO was used at 1 to 2% (v/v) in the final formulation.
# (§2) Administration to Animal: Solution formulation of antibody and compound of Formula (I) was injected (bolus injection) to the restrained mouse in the right/left lateral tail vein. Animals were dosed with 0.1 milligram per kilogram (mpk) of the compound of Formula (I) and 10 mpk of the anti-cotinine antibody.
# (§3) Terminal bleeding at end of experiment (48 hr): Approximately 250 μL of blood in K2EDTA tube and approximately 250 μL of blood in SST (serum separation tube) was collected from each mouse through retro-orbital bleeding under deep isoflurane anesthesia. After bleeding, each mouse was sacrificed by cervical dislocation. The blood distribution at termination was determined as follows: • For PK: 50 μL of K2EDTA blood was transferred to another tube for PK • Flow cytometry: Remaining blood (˜200 μL) was used for flow cytometry analysis. • For serum collection: serum separator tubes (BD) were centrifuged at 4° C., 5000 rpm for 15 minutes. Approximately 100 μL serum was separated and stored at −80° C. for further usage. • Blood drug concentration: Samples collected at the various timepoints (0.25 hr, 2 hr, 24 and 48 hr) were analyzed to determine blood drug concentration.
# Flow cytometry analysis: CCR2 depletion in peripheral blood was determined by flow cytometry. Briefly, peripheral blood was collected from all animals at the end of study termination and processed. […]
# Percent depletion of CD11b+Ly6c+Hi cells and CCR2 expression for the different treatment groups was determined. […]
# [2] = biological target: T1, CHOK1 cells engineered to overexpress human CCR2 (Homo sapiens, UniProt P41597); test: Antibody dependent cellular cytotoxicity (ADCC) reporter assay; type: cell-based; conditions: with anti-cotinine antibody (SEQ ID NO: 11/12, human IgG1 Fc S239D/I332E); Jurkat FcγRIIIa NFAT-luciferase reporter cells; 12-18 hours; average if more than one run; read-out: ADCC Reporter Assay pEC50 (converted)
# T1 construct: expressed in transfected cells; host or cells: CHOK1 cells
# Description: An antibody dependent cellular cytoxocity reporter assay was conducted using the following four assay components: (i) ARM compound of Formula (I) targeting CCR2 (concentrations ranging from 1 pM to 10 μM) (ii) anti-cotinine antibody having a heavy chain sequence of SEQ ID NO: 11 and a light chain sequence of SEQ ID NO: 12 (rabbit variable region with human IgG1 Fc domain containing a DE mutation (S239D/I332E)) (concentrations ranging from 0.01 μg/mL to 200 μg/mL); (iii) target cells: CHOK1 cells engineered to overexpress either human CCR2 (typically 1000-20,000 cells perwell) and (iv) reporter cells: Jurkat cells engineered to express FcγRIIIa with the reporter gene luciferase under the control of the NFAT promoter (typically 3000-75,000 cells per well). Reagents were combined in a final volume of 20 μL in a 384—well tissue culture treated plate. All four assay components were incubated together for about 12-18 hours. Thereafter, BioGlo Detection reagent (Promega) was added to the wells to lyse the cells and provide a substrate for the luciferase reporter protein. Luminescence signal was measured on a microplate reader and signal:background was calculated by dividing the signal of a test well by the signal obtained when no ARM compound of Formula (I) was added. EC50 calculations were done using Graphpad Prism Software, specifically a nonlinear regression curve fit (Y=Bottom+(Top−Bottom)/(1+10 ^((Log EC50−X)*HillSlope))).
# ARMs compounds of Formula (I) of the invention were tested for ADCC activity in the above assay in or more experimental runs and the results are shown in Table 3 below. Potency of the compounds of Formula (I) of the invention is reported as a pEC50 value. The pEC50 value is the negative log of the EC50 value, wherein the EC50 value is the half maximal effective concentration measured in molar (M). For compounds tested in more than one experimental run, the pEC50 value is reported as an average.
# [3] = Blood drug concentration analysis (PK) in the in vivo depletion assay; design: species or system human CCR2 (hCCR2) knock-in mice; conditions: human CCR2 (hCCR2) knock-in, C57 background, mouse, whole blood, LC-MS/MS, IV bolus 0.1 mpk compound + 10 mpk anti-cotinine antibody, 48 hours post-dose, read-out: Exposure of Compound of Formula (I) 48 hours post-dose
# Description: as §1, §2
# Collection of Blood for PK: Blood was collected at time points 0.25 hour, 2 hours, and […] following administration (50 μL/time point) through retro-orbital bleeding under mild isoflurane anesthesia.
# as §3
# Blood drug concentration analysis: Drug concentration in blood samples was determined by an LC-MS/MS-based bioanalytical method developed at Syngene. Samples were analyzed on Q-Trap, API-5500 LC-MS/MS system coupled with Exion UHPLC system from SCIEX, USA operated in multiple reaction monitoring mode employing electrospray ionization technique in positive polarity. Analyte and internal standard peaks were resolved on Synergi Polar, 75×2.0 mm, 4 μcolumn using mobile phase 10 mM Ammonium acetate in Milli-Q water as phase A and 0.1% Formic acid in acetonitrile as Phase B. Gradient elution was performed with initial composition 95% Phase A at 0.0 min, holding it for 0.2 minutes, ramping to 5% by 1.0 minute, keeping the same for next 0.5 minutes and coming back to 95% by 1.6 minutes. The total run time was 2 minutes.
# Working dilutions for calibration curve and quality control standards were prepared by serially diluting 20 mg/mL stock solution with DMSO. Spiked concentrations for calibration curve in the whole blood ranged from 1 ng/mL to 1000 ng/mL. […]
# [4] = biological target: human alpha1 nicotinic acetylcholine (nACh) receptor (Homo sapiens, UniProt P02708+Q07001); test: Nicotinic acetylcholine receptor antagonism assay (IONFlux automated patch clamp); type: cell-based
# Text: Cells expressing human alpha1 nicotinic acetylcholine (nACh) receptor (nAChR) were washed and dissociated using Trypsin containing buffer. Cells were then washed and seeded at a density of 3-5 million cells/mL and allowed to grow for 3 days. […] The receptor was then stimulated via addition of acetylcholine (ACh) and activation of the receptor was monitored via the IONFlux automated patch clamp system. IonFlux Data Analyzer software was utilized to perform leak subtraction and measure (min) peak current amplitude.
# Data processing: (1) Current values recorded for vehicle only applications in individual traps/patterns were subtracted from corresponding current amplitude values for control, test article and control+test article. (2) Control response was calculated as % of the average response of the 3rd out of total 3 ACh (10 mM) applications alone. In rare situations, if the 3rd ACh response was obscured due to technical artifacts, the 2nd and/or 1st ACh (10 mM) application was considered as control. The peak current amplitude generated in the presence of each test article concentration was then used to calculate the % inhibition as compared to control response (10 mM ACh alone). These estimates were further corrected for vehicle response and run down corrected by normalizing with time matched control responses (10 mM ACh alone). The corrected percentages were then fit with a non-linear function in GraphPad Prism 6 (or later versions) to determine the IC50.
# Exclusion criteria: (i) any n's with poor recording quality, (ii) control current amplitude <500 pA or (iii) significant outliers, as determined by the Grubbs' test.
# ARMs compounds of Formula (I) of the invention were tested for antagonism of the nAChR in the above assay in […] experimental runs and the results are shown in Table 5 below. Antagonistic activity of the compounds of Formula (I) of the invention is reported as an IC50 value (half maximal inhibitory concentration) and the maximum percentage antagonism observed at the highest concentration of compound of Formula (I) tested, as indicated in Table 5. For compounds tested in more than one experimental run, the IC50 value is reported as an average.
# Chain of human alpha1 nicotinic acetylcholine (nACh) receptor (P02708 21-457): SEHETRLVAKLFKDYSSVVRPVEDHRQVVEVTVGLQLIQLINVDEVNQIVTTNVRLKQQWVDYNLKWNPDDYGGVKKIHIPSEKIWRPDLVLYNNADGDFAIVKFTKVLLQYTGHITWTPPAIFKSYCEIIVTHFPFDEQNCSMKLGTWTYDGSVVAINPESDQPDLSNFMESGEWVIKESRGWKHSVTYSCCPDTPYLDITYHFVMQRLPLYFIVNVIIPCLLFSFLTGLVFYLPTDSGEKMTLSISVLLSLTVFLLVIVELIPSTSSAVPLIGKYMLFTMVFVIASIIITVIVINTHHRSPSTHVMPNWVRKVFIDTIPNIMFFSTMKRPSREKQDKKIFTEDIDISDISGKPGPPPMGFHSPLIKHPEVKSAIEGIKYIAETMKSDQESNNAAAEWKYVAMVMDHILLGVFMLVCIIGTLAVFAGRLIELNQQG
# Chain of human alpha1 nicotinic acetylcholine (nACh) receptor (P11230 24-501 partner): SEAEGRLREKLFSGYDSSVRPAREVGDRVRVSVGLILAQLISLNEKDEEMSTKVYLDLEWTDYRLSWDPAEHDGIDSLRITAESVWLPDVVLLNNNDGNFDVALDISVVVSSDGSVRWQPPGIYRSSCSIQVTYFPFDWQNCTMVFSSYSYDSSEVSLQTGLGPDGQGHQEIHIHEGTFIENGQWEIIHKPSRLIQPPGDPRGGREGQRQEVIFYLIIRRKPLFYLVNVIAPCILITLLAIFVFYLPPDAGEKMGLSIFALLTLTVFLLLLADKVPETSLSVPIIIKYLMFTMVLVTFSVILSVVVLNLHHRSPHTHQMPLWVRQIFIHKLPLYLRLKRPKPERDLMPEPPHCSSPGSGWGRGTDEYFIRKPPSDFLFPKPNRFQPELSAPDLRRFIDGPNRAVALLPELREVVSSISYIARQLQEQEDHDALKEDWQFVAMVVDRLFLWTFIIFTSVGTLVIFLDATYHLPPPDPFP
# Chain of human alpha1 nicotinic acetylcholine (nACh) receptor (Q07001 22-517): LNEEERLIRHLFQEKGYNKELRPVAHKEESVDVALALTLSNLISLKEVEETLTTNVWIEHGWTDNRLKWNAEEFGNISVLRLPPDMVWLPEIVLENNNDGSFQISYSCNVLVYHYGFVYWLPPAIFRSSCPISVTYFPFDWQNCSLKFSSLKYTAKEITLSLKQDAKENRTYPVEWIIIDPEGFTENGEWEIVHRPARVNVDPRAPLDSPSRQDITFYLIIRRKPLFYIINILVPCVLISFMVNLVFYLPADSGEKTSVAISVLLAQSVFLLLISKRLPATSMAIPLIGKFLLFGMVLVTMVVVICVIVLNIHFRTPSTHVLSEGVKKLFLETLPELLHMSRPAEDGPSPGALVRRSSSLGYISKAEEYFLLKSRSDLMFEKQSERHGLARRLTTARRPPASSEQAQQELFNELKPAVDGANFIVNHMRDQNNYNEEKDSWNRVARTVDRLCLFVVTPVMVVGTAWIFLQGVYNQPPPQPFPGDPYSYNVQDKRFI
SMILES,% Depletion of CCR2 expressing cells [1],EC50 [2],concentration at 48 h [3],"Emax at 100 µM ([4]; maximum percentage antagonism at highest concentration tested, 100 μM, read-out: Maximum Response (%))","IC50 ([4]; nAChR antagonism, stimulated with ACh, average if more than one run)"
"CC(=O)N[C@@H]1C[C@H](NC(C)(C)C)CC[C@@H]1N1CC[C@H](Nc2nc(CCCNC(=O)[C@H]3CC[C@H](NC(=O)CCCO[C@H]4CC[C@H](OCCNC(=O)[C@H]5CC(=O)N(C)[C@@H]5c5cccnc5)CC4)CC3)nc3ccc(C(F)(F)F)cc23)C1=O [Example 1, (2S,3S)—N-(2-(((1R,4S)-4-(4-(((1S,4R)-4-((3-(4-(((S)-1-((1S,2R,4R)-2-Acetamido-4-(tert-butylamino)cyclohexyl)-2-oxopyrrolidin-3-yl)amino)-6-(trifluoromethyl)quinazolin-2-yl)propyl)carbamoyl)cyclohexyl)amino)-4-oxobutoxy)cyclohexyl)oxy)ethyl)-1-methyl-5-oxo-2-(pyridin-3-yl)pyrrolidine-3-carboxamide]",89.18%,0.158 nM,42.9 ng/mL,,
"CC(=O)N[C@@H]1C[C@H](NC(C)(C)C)CC[C@@H]1N1CC[C@H](Nc2nc(COCCNC(=O)[C@H]3CC[C@H](NC(=O)CCCO[C@H]4CC[C@H](OCCNC(=O)[C@H]5CC(=O)N(C)[C@@H]5c5cccnc5)CC4)CC3)nc3ccc(C(F)(F)F)cc23)C1=O [Example 14, (2S,3S)-N-(2-(((1R,4S)-4-(4-(((1S,4R)-4-((2-((4-(((S)-1-((1S,2R,4R)-2-acetamido-4-(tert-butylamino)cyclohexyl)-2-oxopyrrolidin-3-yl)amino)-6-(trifluoromethyl)quinazolin-2-yl)methoxy)ethyl)carbamoyl)cyclohexyl)amino)-4-oxobutoxy)cyclohexyl)oxy)ethyl)-1-methyl-5-oxo-2-(pyridin-3-yl)pyrrolidine-3-carboxamide]",,0.501 nM,,54%,> 100000 nM
